Measurements as given in patent EP0807624B1, “RETINOIC ACID DERIVATIVES” (THE SALK INSTITUTE FOR BIOLOGICAL STUDIES, priority 1991, dated 1993).

Tests used:
RAR-γ = assay: Cotransfection assay in CV-1 cells; assay type: cell-based, human; conditions: RARγ; maximal response relative to retinoic acid at 10^-5 M
RAR-α = assay: Cotransfection assay in CV-1 cells; assay type: cell-based, human; conditions: RARα; maximal response relative to retinoic acid at 10^-5 M
RXR-β = biological target: T1, RXR-β (Mus musculus, UniProt P28704); assay: Cotransfection assay in CV-1 cells; assay type: cell-based; conditions: RXRβ; maximal response relative to retinoic acid at 10^-5 M
T1 sequence (P28704 1-520): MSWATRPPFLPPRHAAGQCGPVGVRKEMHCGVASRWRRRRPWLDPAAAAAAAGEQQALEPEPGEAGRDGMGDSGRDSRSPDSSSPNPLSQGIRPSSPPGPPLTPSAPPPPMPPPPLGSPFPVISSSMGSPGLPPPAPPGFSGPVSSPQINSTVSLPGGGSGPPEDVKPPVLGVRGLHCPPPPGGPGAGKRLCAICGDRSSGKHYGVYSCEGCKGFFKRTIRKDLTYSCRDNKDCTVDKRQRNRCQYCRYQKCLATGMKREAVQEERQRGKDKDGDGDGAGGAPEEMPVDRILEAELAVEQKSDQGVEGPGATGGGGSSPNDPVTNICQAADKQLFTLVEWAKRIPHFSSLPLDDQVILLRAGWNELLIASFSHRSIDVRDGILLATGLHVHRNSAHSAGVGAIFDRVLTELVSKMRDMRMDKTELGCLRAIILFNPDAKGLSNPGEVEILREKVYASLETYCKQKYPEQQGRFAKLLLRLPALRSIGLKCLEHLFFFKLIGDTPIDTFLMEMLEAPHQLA

RXR-γ = biological target: T2, RXR-γ (Mus musculus, UniProt P28705); assay: Cotransfection assay in CV-1 cells; assay type: cell-based; conditions: RXRγ; maximal response relative to retinoic acid at 10^-5 M
T2 sequence (P28705 1-463): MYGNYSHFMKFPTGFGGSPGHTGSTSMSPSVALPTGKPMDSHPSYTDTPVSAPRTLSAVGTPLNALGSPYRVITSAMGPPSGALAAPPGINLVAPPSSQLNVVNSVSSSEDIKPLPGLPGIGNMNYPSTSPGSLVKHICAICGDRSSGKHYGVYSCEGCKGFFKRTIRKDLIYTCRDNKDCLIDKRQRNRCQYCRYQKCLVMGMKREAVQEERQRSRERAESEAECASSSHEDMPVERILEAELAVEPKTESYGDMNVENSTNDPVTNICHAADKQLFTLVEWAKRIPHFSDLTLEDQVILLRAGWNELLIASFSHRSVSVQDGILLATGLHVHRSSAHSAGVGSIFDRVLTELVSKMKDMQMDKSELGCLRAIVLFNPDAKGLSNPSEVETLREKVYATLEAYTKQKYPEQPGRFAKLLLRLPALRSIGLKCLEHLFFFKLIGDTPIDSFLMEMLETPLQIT

RAR-β = assay: Cotransfection assay in CV-1 cells; assay type: cell-based, human; conditions: RARβ; maximal response relative to retinoic acid at 10^-5 M
[1] = system: normal human epidermal keratinocytes (NHEK534 cell line); assay: cells; conditions: Keratinocyte, read-out: EC50 for inhibition of differentiation
[2] = system: human primary metastatic melanoma cell line c81-46c; assay: In vitro proliferation of melanoma cell line; assay type: cell-based; conditions: read-out: % Growth inhibition; for inhibition at 0.01 µM: 0.01 µM added; for inhibition at 1 µM: 1 µM added
[3] = system: murine melanoma cell line Clone M3; assay: In vitro proliferation of melanoma cell line; conditions: Mus musculus, read-out: % Growth inhibition
RXR-α = assay: Cotransfection assay in CV-1 cells; assay type: cell-based, human; conditions: RXRα; maximal response relative to retinoic acid at 10^-5 M
HL60R cells = assay: Differentiation of HL60R cells (NBT); assay type: cell-based; conditions: concentrations up to 10 µM
HL60 cells = assay: cells; conditions: Homo sapiens, HL-60, 144 h, read-out: EC-50 for differentiation, as determined by NBT

Efficacy (RXR-β)	Efficacy (RXR-γ)	SMILES	Efficacy (RAR-γ)	Efficacy (RAR-α)	Efficacy (RAR-β)	EC50 [1]	inhibition at 0.01 µM [2]	inhibition at 1 µM [2]	inhibition at 0.01 µM [3]	inhibition at 1 µM [3]	Efficacy (RXR-α)	differentiation (NBT) of HL60R cells (HL60R cells)	EC50 (HL60 cells)
143%	115%	CC1=C(/C=C/C(C)=C\C=C\C(C)=C\C(=O)O)C(C)(C)CCC1O (stereo not drawn) [4-hydroxy-9-cis-retinoic acid]	81%	65%	71%								
		CC1=C(/C=C/C(C)=C\C=C\C(C)=C\C(=O)O)C(C)(C)CCC1 [9-cis-retinoic acid]				20 ± 2.8 nM	-28%	-45%	-49%	-85%			
105%	133%	CC1=C(/C=C/C(C)=C\C=C\C(C)=C\C(=O)O)C(C)(C)CCC1=O [4-keto-9-cis-retinoic acid]									104%		
88%	77%	CC1=C(/C=C/C(=C\C=C\C(C)=C\C(=O)O)c2ccccc2)C(C)(C)CCC1 [9-phenyl-9-cis-retinoic acid]	59%	<2%	39%						76%		
		CC1=C(/C=C/C(C)=C/C=C/C(C)=C/C(=O)O)C(C)(C)CCC1 [all-trans-retinoic acid]				20 ± 2.8 nM	-17%	-44%				resistant to differentiation	2000 nM
